Measurements published in PubChem BioAssay (NCI).
Where “and” joins values, the source holds several entries; their conditions need not be identical. Identical values can stand only once.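 Growth conditions: 96-well plates. Treatment: test compound, 48 hours, 5 concentrations. Analysis: linear interpolation between bracketing concentrations; unreached endpoints set to highest concentration. GI50 = concentration required for 50% inhibition of growth. The concentration for full growth arrest is given as TGI.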

Assays:
Test in all cases: growth of human tumour cells (NCI), 48 h
PC-3 prostate = tested on: PC-3 prostate
HCT-116 colon = tested on: HCT-116 colon
BT-549 breast = tested on: BT-549 breast
K-562 leukemia = tested on: K-562 leukemia
SNB-19 CNS = tested on: SNB-19 CNS
HCC-2998 colon = tested on: HCC-2998 colon
HCT-15 colon = tested on: HCT-15 colon
HL-60(TB) leukemia = tested on: HL-60(TB) leukemia
RPMI-8226 leukemia = tested on: RPMI-8226 leukemia
NCI/ADR-RES ovarian = tested on: NCI/ADR-RES ovarian
UACC-257 melanoma = tested on: UACC-257 melanoma
OVCAR-3 ovarian = tested on: OVCAR-3 ovarian
SW-620 colon = tested on: SW-620 colon
SK-MEL-5 melanoma = tested on: SK-MEL-5 melanoma
LOX IMVI melanoma = tested on: LOX IMVI melanoma
DU-145 prostate = tested on: DU-145 prostate
A498 renal = tested on: A498 renal
SF-268 CNS = tested on: SF-268 CNS
ACHN renal = tested on: ACHN renal
MCF7 breast = tested on: MCF7 breast
UACC-62 melanoma = tested on: UACC-62 melanoma
HS 578T breast = tested on: HS 578T breast
A549 NSCLC = tested on: A549 NSCLC
SN12C renal = tested on: SN12C renal
NCI-H522 lung = tested on: NCI-H522 lung
MDA-MB-435 = tested on: MDA-MB-435
OVCAR-8 ovarian = tested on: OVCAR-8 ovarian
T-47D breast = tested on: T-47D breast
UO-31 renal = tested on: UO-31 renal
786-0 renal = tested on: 786-0 renal
U251 CNS = tested on: U251 CNS
SNB-75 CNS = tested on: SNB-75 CNS
IGROV1 ovarian = tested on: IGROV1 ovarian
NCI-H23 lung = tested on: NCI-H23 lung
COLO 205 colon = tested on: COLO 205 colon
SK-MEL-2 melanoma = tested on: SK-MEL-2 melanoma
OVCAR-4 ovarian = tested on: OVCAR-4 ovarian
SF-295 CNS = tested on: SF-295 CNS
CAKI-1 renal = tested on: CAKI-1 renal
EKVX NSCLC = tested on: EKVX NSCLC
NCI-H226 lung = tested on: NCI-H226 lung
HOP-92 NSCLC = tested on: HOP-92 NSCLC
MDA-MB-231 breast = tested on: MDA-MB-231 breast
HT29 colon = tested on: HT29 colon
CCRF-CEM leukemia = tested on: CCRF-CEM leukemia
MALME-3M melanoma = tested on: MALME-3M melanoma
KM12 colon = tested on: KM12 colon
RXF 393 renal = tested on: RXF 393 renal
TK-10 renal = tested on: TK-10 renal
HOP-62 NSCLC = tested on: HOP-62 NSCLC
M14 melanoma = tested on: M14 melanoma
NCI-H460 lung = tested on: NCI-H460 lung
MOLT-4 leukemia = tested on: MOLT-4 leukemia
SF-539 CNS = tested on: SF-539 CNS
SR leukemia = tested on: SR leukemia
OVCAR-5 ovarian = tested on: OVCAR-5 ovarian
SK-OV-3 ovarian = tested on: SK-OV-3 ovarian
SK-MEL-28 melanoma = tested on: SK-MEL-28 melanoma

CC1=C(/C=C/C(C)=C/C=C/C(C)=C/C=N/NC(=S)NC(=S)N/N=C/C=C(C)/C=C/C=C(C)/C=C/C2=C(C)CCCC2(C)C)C(C)(C)CCC1
GI50 (PC-3 prostate): 3.52 µM and 1.75 µM | TGI (PC-3 prostate): 12.7 µM and 7.23 µM | GI50 (HCT-116 colon): 1.91 µM and 0.916 µM | TGI (HCT-116 colon): 8.4 µM and 2.23 µM | GI50 (BT-549 breast): 4.85 µM and 1.69 µM | TGI (BT-549 breast): 11.5 µM and 4.77 µM | GI50 (K-562 leukemia): 1.96 µM and 1.29 µM | TGI (K-562 leukemia): 8.62 µM and 6.63 µM | GI50 (SNB-19 CNS): 5.25 µM and 4.15 µM | TGI (SNB-19 CNS): 11.6 µM and 12 µM | GI50 (HCC-2998 colon): 6.73 µM and 4.07 µM | TGI (HCC-2998 colon): 13.5 µM and 11.8 µM | GI50 (HCT-15 colon): 2.68 µM and 1.89 µM | TGI (HCT-15 colon): 9.82 µM and 8.2 µM | GI50 (HL-60(TB) leukemia): 1.77 µM and 1 µM | TGI (HL-60(TB) leukemia): 9.22 µM and 4.3 µM | GI50 (RPMI-8226 leukemia): 3.31 µM and 1.29 µM | TGI (RPMI-8226 leukemia): 23.1 µM and 4.55 µM | GI50 (NCI/ADR-RES ovarian): 1.76 µM and 1.56 µM | TGI (NCI/ADR-RES ovarian): 6.61 µM and 5.46 µM | GI50 (UACC-257 melanoma): 5.49 µM and 3.64 µM | TGI (UACC-257 melanoma): 12 µM and 9.82 µM | GI50 (OVCAR-3 ovarian): 1.47 µM and 0.802 µM | TGI (OVCAR-3 ovarian): 4.92 µM and 1.53 µM | GI50 (SW-620 colon): 1.44 µM and 0.86 µM | TGI (SW-620 colon): 5.42 µM and 1.74 µM | GI50 (SK-MEL-5 melanoma): 1.55 µM and 1.56 µM | TGI (SK-MEL-5 melanoma): 5.03 µM and 6.03 µM | GI50 (LOX IMVI melanoma): 1.8 µM and 1.11 µM | TGI (LOX IMVI melanoma): 6.53 µM and 3.02 µM | GI50 (DU-145 prostate): 5.79 µM and 2.55 µM | TGI (DU-145 prostate): 12.5 µM and 8.77 µM | GI50 (A498 renal): 6.57 µM and 1.36 µM | TGI (A498 renal): 13 µM and 5.83 µM | GI50 (SF-268 CNS): 5.38 µM and 2.47 µM | TGI (SF-268 CNS): 11.9 µM and 9.11 µM | GI50 (ACHN renal): 5.14 µM and 2.3 µM | TGI (ACHN renal): 11.4 µM and 7.9 µM | GI50 (MCF7 breast): 2.38 µM and 1.83 µM | TGI (MCF7 breast): 12.5 µM and 7.5 µM | GI50 (UACC-62 melanoma): 1.48 µM and 0.89 µM | TGI (UACC-62 melanoma): 6.09 µM and 2.43 µM | GI50 (HS 578T breast): 3.25 µM and 1.91 µM | TGI (HS 578T breast): 18.7 µM and 9.97 µM | GI50 (A549 NSCLC): 5.4 µM and 3.79 µM | TGI (A549 NSCLC): 12.7 µM and 10.8 µM | GI50 (SN12C renal): 1.56 µM and 1.07 µM | TGI (SN12C renal): 6.34 µM and 3.32 µM | GI50 (NCI-H522 lung): 0.286 µM and 0.181 µM | TGI (NCI-H522 lung): 1.07 µM and 0.795 µM | GI50 (MDA-MB-435): 1.17 µM and 0.84 µM | TGI (MDA-MB-435): 4.49 µM and 2.14 µM | GI50 (OVCAR-8 ovarian): 3.71 µM and 2.06 µM | TGI (OVCAR-8 ovarian): 12.3 µM and 7.32 µM | GI50 (T-47D breast): 1.49 µM and 1.09 µM | TGI (T-47D breast): 8.43 µM and 4.34 µM | GI50 (UO-31 renal): 1.84 µM and 1.52 µM | TGI (UO-31 renal): 8.94 µM and 7.32 µM | GI50 (786-0 renal): 1.75 µM and 0.944 µM | TGI (786-0 renal): 5.09 µM and 1.85 µM | GI50 (U251 CNS): 2.17 µM and 1.58 µM | TGI (U251 CNS): 7.18 µM and 4.62 µM | GI50 (SNB-75 CNS): 2.06 µM and 1.16 µM | TGI (SNB-75 CNS): 6.75 µM and 3.28 µM | GI50 (IGROV1 ovarian): 1.33 µM and 0.943 µM | TGI (IGROV1 ovarian): 6.15 µM and 2.87 µM | GI50 (NCI-H23 lung): 1.76 µM and 1.17 µM | TGI (NCI-H23 lung): 7.28 µM and 4.37 µM | GI50 (COLO 205 colon): 1.46 µM and 0.903 µM | TGI (COLO 205 colon): 5.14 µM and 1.71 µM | GI50 (SK-MEL-2 melanoma): 5.79 µM and 1.82 µM | TGI (SK-MEL-2 melanoma): 12.5 µM and 6.97 µM | GI50 (OVCAR-4 ovarian): 1.74 µM and 1.22 µM | TGI (OVCAR-4 ovarian): 7.84 µM and 5.4 µM | GI50 (SF-295 CNS): 4.09 µM and 2.1 µM | TGI (SF-295 CNS): 11.7 µM and 9.42 µM | GI50 (CAKI-1 renal): 1.6 µM and 0.853 µM | TGI (CAKI-1 renal): 7.12 µM and 2.9 µM | GI50 (EKVX NSCLC): 3.97 µM and 1.66 µM | TGI (EKVX NSCLC): 11.3 µM and 7.77 µM | GI50 (NCI-H226 lung): 1.06 µM and 1.05 µM | TGI (NCI-H226 lung): 2.68 µM and 2.47 µM | GI50 (HOP-92 NSCLC): 5.82 µM and 2.33 µM | TGI (HOP-92 NSCLC): 13.4 µM and 6.76 µM | GI50 (MDA-MB-231 breast): 3.99 µM and 3.67 µM | TGI (MDA-MB-231 breast): 11 µM and 10.6 µM | GI50 (HT29 colon): 1.91 µM and 1.07 µM | TGI (HT29 colon): 8.83 µM and 3.69 µM | GI50 (CCRF-CEM leukemia): 1.71 µM and 0.686 µM | TGI (CCRF-CEM leukemia): 25.8 µM and 4.45 µM | GI50 (MALME-3M melanoma): 1.19 µM and 0.882 µM | TGI (MALME-3M melanoma): 5.91 µM and 2.63 µM | GI50 (KM12 colon): 2.74 µM and 1.32 µM | TGI (KM12 colon): 9.21 µM and 3.97 µM | GI50 (RXF 393 renal): 0.935 µM and 0.847 µM | TGI (RXF 393 renal): 1.87 µM and 1.58 µM | GI50 (TK-10 renal): 8.6 µM and 2.2 µM | TGI (TK-10 renal): 16.1 µM and 7.54 µM | GI50 (HOP-62 NSCLC): 3.84 µM and 2.42 µM | TGI (HOP-62 NSCLC): 11.3 µM and 5 µM | GI50 (M14 melanoma): 1.24 µM and 0.918 µM | TGI (M14 melanoma): 3.73 µM and 1.74 µM | GI50 (NCI-H460 lung): 2.35 µM and 1.66 µM | TGI (NCI-H460 lung): 8.68 µM and 6.36 µM | GI50 (MOLT-4 leukemia): 1.16 µM and 0.667 µM | TGI (MOLT-4 leukemia): 6.09 µM and 2.45 µM | GI50 (SF-539 CNS): 1.13 µM and 0.994 µM | TGI (SF-539 CNS): 2.85 µM and 2.03 µM | GI50 (SR leukemia): 1.43 µM and 0.938 µM | TGI (SR leukemia): 8.12 µM and 3.79 µM | GI50 (OVCAR-5 ovarian): 3.49 µM and 2.84 µM | TGI (OVCAR-5 ovarian): 9.72 µM and 8.04 µM | GI50 (SK-OV-3 ovarian): 6.79 µM and 5.51 µM | TGI (SK-OV-3 ovarian): 14 µM and 12.3 µM | GI50 (SK-MEL-28 melanoma): 3.23 µM and 1.85 µM | TGI (SK-MEL-28 melanoma): 9.12 µM and 6.78 µM
